For data set [1] the following is noted: single substitution of Ile for Glu at position 4, versus unmodified subtilin; cited from earlier work.
For the next data set, the system named is Bacillus subtilis 1687. The data set is described as follows: Deferred antagonism assay on trypticase soy-yeast agar plates. It is filed as cell-based. The note with it: zone of inhibition.
In another data set the test system is Streptococcus salivarius. Described as above. It is filed as cell-based. To be noted: zone of inhibition.
In a further data set the test system is Actinomyces viscosus. The description is as above. It is filed as cell-based. The note with it: zone of inhibition.
Another data set concerns Streptococcus mitis. The data set is described as above. In kind it is cell-based. The note with it: zone of inhibition.
The test system of another data set is Streptococcus mutans WT. The description is as above. It is filed as cell-based. The note with it: zone of inhibition. How it is done: (§1) Mutacin production was detected by deferred antagonism technique on trypticase soy-yeast agar (TSAY) using S. sobrinus OMZ176, S. mutans 10449, or S. sanguis Ny101 as sensitive indicators (Parrot, et al., 1990). Mutacin present in liquid culture was quantified by spotting […] of 2-fold dilutions of mutacin in phosphate buffered saline (PBS) onto the surface of TSAY overlaid with indicator strain as described. Spots were allowed to dry for 1 h, then the plates were incubated anaerobically for 24 h. The lowest titer yielding a zone of inhibition having clear edges was defined as one bacteriocin unit (BU).
(§2) Biological activity may also be measured by overlaying thin layer chromatography or SDS-PAGE gels with an indicator strain.

Another data set has as its system Streptococcus sanguis. Described as above. The note with it: zone of inhibition. In kind it is cell-based. How it is done:
as §1, §2

Data set [2] has as its system Streptococcus mutans GS-5. The data set is described as above. It is filed as cell-based. To be noted: zone of inhibition.
The next data set deals with Clostridium sporogenes. The data set is described as above. In kind it is cell-based. To be noted: Clostridium sporogenes (ATCC 19606); zone of inhibition.
The next data set deals with Streptococcus rattus. Described as above. It is filed as cell-based. The note with it: zone of inhibition.
The subject of another data set is trypsin. Nature of the data set: Sensitivity to trypsin (residual mutacin activity). It is filed as physicochemical. How it is done:
Sensitivity to trypsin (Sigma Chemical Co., St. Louis, Mo.) was determined according to the manufacturer's recommendation by incubating purified mutacin (4096 BU) in 50 ml of 50 mM sodium phosphate buffer pH 7.5 with trypsin (2 mg) at room temperature. Samples were analyzed for residual mutacin activity at various time intervals.
(§3) Mutacin was sensitive to trypsin. After 10 min incubation with the protease, no activity in sample was detected. Control samples without trypsin retained their full activity under identical conditions. Mutacin was thermostable as analyzed by residual activity after incubation at 80° C. for 30 min, and by incubating at 100° C. in loading buffer.

A further data set has as its system Streptococcus lactis. Nature of the data set: Deferred antagonism assay on trypticase soy-yeast agar plates. It is filed as cell-based. To be noted: zone of inhibition.
The next data set has as its system Staphylococcus aureus. The data set is described as above. In kind it is cell-based. Set-up: key: S, sensitive (zone radius >2 mm); SS, zone radius >S. The note with it: zone of inhibition.
For the next data set, the system named is Streptococcus pneumoniae. The data set is described as above. To be noted: zone of inhibition. Set-up: key: S, sensitive (zone radius >2 mm); SS, zone radius >S. In kind it is cell-based.
The subject of the next data set is Streptococcus mutans 130. The description is as above. It is filed as cell-based. To be noted: zone of inhibition.
The subject of a further data set is Streptococcus faecium. Described as above. It is filed as cell-based. To be noted: zone of inhibition.
Data set [3] is described as follows: Isoelectric point (electrophoretic mobility / isoelectric focusing). In kind it is physicochemical. To be noted: based on electrophoretic mobility.
The subject of another data set is Streptococcus mutans 159. Nature of the data set: Deferred antagonism assay on trypticase soy-yeast agar plates. The note with it: zone of inhibition. In kind it is cell-based.
The format of data set [4] is physicochemical.
Excerpt: (§4) The mutacins of the present invention have an apparent Mr of about 2,500 Da as determined by high performance liquid chromatography using a size-exclusion column. This is a useful defining parameter which may be determined using the routinely employed technique of column chromatography. However, the highly purified mutacins may be found to have a slightly different exact molecular weights, depending on the technique used, such as the molecular weight of 3,244.64±1.15 Da determined by ion spray mass spectroscopy for the T8-derived mutacin as determined from the m/z values, wherein z is equal to 2, 3, or 4 for m / z values 1623, 1083 and 812, respectively (see FIG. 4). Furthermore, the mutacin is thermostable, as measured by, e.g., incubating an agar plug at 100° C. for 30 minutes and quantitating bacteriocidal activity. The mutacin is stable over a pH range of 4-10, as measured by incubating the purified mutacin for 24 hours in appropriate 0.1 M buffers, e.g., such as acetate, phosphate or glycine buffers, at room temperature, and tested for bacteriocidal activity.
as §3

A further data set deals with Mycobacterium phlei. Nature of the data set: Deferred antagonism assay on trypticase soy-yeast agar plates. In kind it is cell-based. The note with it: zone of inhibition.
Data set [5] has as its system Streptococcus faecalis 78.4. The description is as above. The note with it: zone of inhibition. In kind it is cell-based.
The subject of the next data set is Streptococcus pyogenes. Described as above. Set-up: key: S, sensitive (zone radius >2 mm); SS, zone radius >S. In kind it is cell-based. To be noted: zone of inhibition.
The format of data set [6] is physicochemical.
Excerpt: as §4
Purified mutacin was mixed with different 0.1 M buffers in range pH 4-11 (sodium acetate pH 4-6; sodium phosphate pH 7-8; glycine-NaOH pH 8-11). After one or 24 h incubation at room temperature, residual mutacin activity was assayed using the spot test described above. […]
The source holds these as a separate data set.

The subject of data set [7] is S. sobrinus OMZ176, S. mutans 10449, or S. sanguis Ny101 as sensitive indicators. The data set is described as follows: Mutacin assay: spot test of 2-fold dilutions, bacteriocin units (BU). It is filed as cell-based. The note with it: bacteriocin units per mg total protein, at stages of purification. An excerpt:
The isolated antimicrobial mutacin polypeptides of the invention are generally characterized as having substantial bacteriocidal activity. As used herein the term “substantial bacteriocidal activity” describes significant mutacin-directed bacterial killing, as measured by any one of a variety of assays. Bacteriocidal activity may be advantageously examined and quantified by the deferred antagonism technique on trypticase soy-yeast agar (TSAY) using S. sobrinus OMZ176 or S. sanguis Ny101 as sensitive indicators (Parrot, et al., 1990). A unit of bacteriocidal activity (BU), present in liquid culture, is described as the lowest titer yielding a clear lytic-like zone of inhibition having clear edges and greater than 10 mm in diameter. Chikindas et al. describes arbitrary units (AU) of activity, which are essentially identical to bacteriocidal activity units. […]
Mutacin production was detected by deferred antagonism technique on trypticase soy-yeast agar (TSAY) using S. sobrinus OMZ176, S. mutans 10449, or S. sanguis Ny101 as sensitive indicators (Parrot, et al., 1990). Mutacin present in liquid culture was quantified by spotting […] of 2-fold dilutions of mutacin in phosphate buffered saline (PBS) onto the surface of TSAY overlaid with indicator strain as described. […]

Like-named read-outs stand apart in the source and are kept apart here. No end group written: not given here.

Take `C=C1NC(=O)CC[C@@H](C(=O)O)NC(=O)[C@H](NC(=O)[C@H](CCCCN)NC(=O)[C@@H](N)Cc2c[nH]c3ccccc23)CSC[C@@H](C(=O)N[C@@H]2C(=O)N3CCC[C@H]3C(=O)NCC(=O)N[C@H](C(=O)N[C@H](C(=O)N[C@@H]3C(=O)NCC(=O)N[C@@H](C)C(=O)N[C@@H](CC(C)C)C(=O)N[C@@H](CCC(N)=O)C(=O)N/C(=C/C)C(=O)N[C@H](C(=O)N[C@@H](Cc4ccccc4)C(=O)N[C@@H](CC(C)C)C(=O)N[C@@H](CCC(N)=O)C(=O)N[C@@H]4C(=O)N[C@@H](CC(C)C)C(=O)N[C@H]5C(=O)N[C@@H](CSC4C)C(=O)NC(=O)[C@H](CC(N)=O)N[C@H](C(=O)N[C@@H](CCCCN)C(=O)N[C@H](C(=O)NC(=C)C(=O)N[C@@H](CCCCN)C(=O)O)[C@@H](C)CC)CSC5C)CSC3C)C(C)C)CSC2C)N[C@@H](CC(C)C)C(=O)NC1=O` (stereo partly shown) [subtilin]: the “increase of the biological half-life” value in [1] is reported as 57 fold.

In the case of “Mutacin: lanthionine-containing polypeptide antibiotic (lantibiotic) purified from Streptococcus mutans T8 or UA96; N-terminus Asn Arg Trp Trp Gln Gly Val Val (NRWWQGVVPTVSYECRMNSWQHVFTCC; cysteine pairing not given here; also: lanthionine-containing lantibiotic, lanthionines not placed; UniProt O54329 27-53, looked up)”, the Sensitivity entry in the data set on Bacillus subtilis 1687 is “S (S, sensitive (zone radius >2 mm))”; with Streptococcus salivarius it was “S (S, sensitive (zone radius >2 mm))”; in the data set with Actinomyces viscosus, “S (S, sensitive (zone radius >2 mm))”; in the data set with Streptococcus mitis it was “S (S, sensitive (zone radius >2 mm))”; with Streptococcus mutans WT it was “S (S, sensitive (zone radius >2 mm))”; in the data set on Streptococcus sanguis, “S (S, sensitive (zone radius >2 mm))”. The Sensitivity result in data set [2] is given as “S (S, sensitive (zone radius >2 mm))”; with Clostridium sporogenes, “S (S, sensitive (zone radius >2 mm))”; in the data set on Streptococcus rattus, “S (S, sensitive (zone radius >2 mm))”; in the data set on Streptococcus lactis, “S (S, sensitive (zone radius >2 mm))”; in the data set with Staphylococcus aureus it was “SS”; in the data set with Streptococcus pneumoniae, “SS”. For the same compound, the Sensitivity result is “S (S, sensitive (zone radius >2 mm))” with Streptococcus mutans 130; “S (S, sensitive (zone radius >2 mm))” with Streptococcus faecium; “S (S, sensitive (zone radius >2 mm))” in the data set with Streptococcus mutans 159; “S (S, sensitive (zone radius >2 mm))” with Mycobacterium phlei; “S (S, sensitive (zone radius >2 mm))” in [5]; “SS” in the data set on Streptococcus pyogenes. Besides, in the data set on trypsin, the “Trypsin (sensitivity)” value is listed as “sensitive”. Also, the “residual mutacin activity after incubation with trypsin” value in the data set with trypsin (10 min, 4096 BU mutacin, trypsin 2 mg, 50 mM sodium phosphate pH 7.5, room temperature) was “no activity”. Besides, the “pI (isoelectric point)” value in data set [3] is reported as “≧8.4 (based on electrophoretic”. Further, the “Temperature (thermostable)” value in [4] is “thermostable > 100 °C”; in [4] (listed as mutacin), “up to 100 °C”. Further, in data set [4], the “thermostability, residual activity after incubation” value is listed as “thermostable”. Also, in data set [6] (listed as mutacin), the “pH (stable range)” value is given as 4-10. For the same compound, the “residual activity after incubation at pH 11” value in data set [6] (pH 11, 0.1 M glycine-NaOH, one or 24 h at room temperature, spot test) is “about 50%”.

In the case of “Water precipitate from 8M urea: final preparation of mutacin, solubilized in 8 M urea and precipitated with water; over 90% pure (NRWWQGVVPTVSYECRMNSWQHVFTCC; cysteine pairing not given here; also: lanthionine-containing lantibiotic, lanthionines not placed; UniProt O54329 27-53, looked up)”, the Spec. activity in data set [7] is listed as 150,187 BU/mg.

The values above are taken from patent US6521596B1, “Lanthionine antibiotic compositions and method” (priority 1994, dated 2003).
